Columns and labels:
[1] = Ratio of IC50 for Akt1 to IC50 for Akt2
[2] = molecular target: T1, RAC-alpha serine/threonine-protein kinase (Homo sapiens, UniProt P31749); experiment: Inhibition of Akt in human LNCaP cell assessed as inhibition of PRAS40 phosphorylation; format: cell-based
[3] = Inhibition of PKA
[4] = molecular target: T1, RAC-alpha serine/threonine-protein kinase; experiment: Inhibition of Akt1
[5] = Ratio of IC50 for Akt1 to IC50 for Akt3
[6] = Plasma protein binding in rat; format: ADME, cell-free; settings: read-out: PPB (converted)
PC-3 [7] = experiment: Antitumor activity against human PC3 prostate tumor cell xenografted in nude mouse assessed as inhibition of tumor growth at 200 mg/kg, po qd for 14 days; format: functional; parameters: scale not given: the % may be the effect or the level left
[8] = Inhibition of PRAS40 phosphorylation in human U87 cells xenografted in mouse at 200 mg/kg, po after 12 hrs; format: functional, U-87MG ATCC; settings: U-87 MG
[9] = Inhibition of PRAS40 phosphorylation in human U87 cells xenografted in mouse at 50 mg/kg, po after 1 hr; format: functional, U-87MG ATCC; settings: U-87 MG
[10] = Clearance in rat at 5 mg/kg, iv; format: ADME, organism-based; parameters: dose 5 mg/kg, route intravenous; settings: in vivo
[11] = Inhibition of PRAS40 phosphorylation in human U87 cells xenografted in mouse at 50 mg/kg, po after 4 hr; format: functional, U-87MG ATCC; settings: U-87 MG
PC-3 [12] = experiment: Antitumor activity against human PC3 prostate tumor cell xenografted in nude mouse assessed as inhibition of tumor growth at 100 mg/kg, po qd for 14 days; format: functional; settings: PC-3, 336 h
Plasma [13] = experiment: Increase in plasma drug level in nude mouse xenografted with human U87 cells at 200 mg/kg, po after 1 hr; format: ADME, organism-based, U-87MG ATCC; parameters: dose 200 mg/kg, route oral; settings: in vivo
Plasma [14] = experiment: Increase in plasma drug level in nude mouse xenografted with human U87 cells at 200 mg/kg, po after 4 hrs; format: ADME, organism-based, U-87MG ATCC; parameters: dose 200 mg/kg, route oral; settings: in vivo
PC-3 [15] = experiment: Antitumor activity against human PC3 prostate tumor cell xenografted in nude mouse assessed as inhibition of tumor growth at 25 mg/kg, po qd for 14 days; format: functional; parameters: scale not given: the % may be the effect or the level left
Plasma [16] = experiment: Increase in plasma drug level in nude mouse xenografted with human U87 cells at 50 to 100 mg/kg, po after 1 hr; format: ADME, organism-based, U-87MG ATCC; parameters: dose 50-100 mg/kg, route oral; settings: in vivo
PC-3 [17] = experiment: Antitumor activity against human PC3 prostate tumor cell xenografted in nude mouse assessed as inhibition of tumor growth at 50 mg/kg, po qd for 14 days; format: functional; parameters: scale not given: the % may be the effect or the level left
Plasma [18] = experiment: Increase in plasma drug level in nude mouse xenografted with human U87 cells at 50 to 100 mg/kg, po after 4 hrs; format: ADME, organism-based, U-87MG ATCC; parameters: dose 50-100 mg/kg, route oral; settings: in vivo
[19] = Plasma concentration in rat at 50 mg/kg, po; format: ADME, organism-based; parameters: dose 50 mg/kg, route oral
[20] = Inhibition of PRAS40 phosphorylation in human U87 cells xenografted in mouse at 200 mg/kg, po after 4 hrs; format: functional, U-87MG ATCC; settings: U-87 MG
[21] = Bioavailability in rat at 50 mg/kg, po; format: ADME, organism-based; settings: in vivo
[22] = molecular target: Protein kinase C eta type (Homo sapiens) (UniProt P24723); experiment: Inhibition of PKCeta at 1 uM
Protein kinase C eta type (Homo sapiens), sequence (P24723 whole entry): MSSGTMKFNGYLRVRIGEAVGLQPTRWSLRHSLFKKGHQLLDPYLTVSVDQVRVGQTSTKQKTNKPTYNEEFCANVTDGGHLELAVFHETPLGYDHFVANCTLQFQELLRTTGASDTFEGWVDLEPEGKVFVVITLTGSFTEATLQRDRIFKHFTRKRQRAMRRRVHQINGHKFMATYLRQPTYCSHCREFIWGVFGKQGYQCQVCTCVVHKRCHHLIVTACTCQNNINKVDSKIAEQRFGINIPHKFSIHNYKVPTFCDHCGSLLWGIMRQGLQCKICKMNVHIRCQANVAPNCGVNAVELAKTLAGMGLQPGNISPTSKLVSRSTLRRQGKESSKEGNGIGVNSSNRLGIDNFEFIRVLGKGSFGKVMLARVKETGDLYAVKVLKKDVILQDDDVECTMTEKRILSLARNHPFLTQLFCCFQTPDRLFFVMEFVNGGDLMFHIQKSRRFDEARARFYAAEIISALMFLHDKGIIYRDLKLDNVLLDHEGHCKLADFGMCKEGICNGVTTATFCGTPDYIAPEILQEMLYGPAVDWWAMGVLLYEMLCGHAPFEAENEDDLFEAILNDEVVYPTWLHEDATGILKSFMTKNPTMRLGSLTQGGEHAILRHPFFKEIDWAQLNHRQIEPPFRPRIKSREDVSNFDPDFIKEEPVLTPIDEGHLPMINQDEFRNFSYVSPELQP

[23] = Inhibition of PKA at 1 uM
[24] = molecular target: Ribosomal protein S6 kinase beta-1 (Homo sapiens) (UniProt P23443); experiment: Inhibition of p70S6K at 1 uM
Ribosomal protein S6 kinase beta-1 (Homo sapiens), sequence (P23443 whole entry, looked up): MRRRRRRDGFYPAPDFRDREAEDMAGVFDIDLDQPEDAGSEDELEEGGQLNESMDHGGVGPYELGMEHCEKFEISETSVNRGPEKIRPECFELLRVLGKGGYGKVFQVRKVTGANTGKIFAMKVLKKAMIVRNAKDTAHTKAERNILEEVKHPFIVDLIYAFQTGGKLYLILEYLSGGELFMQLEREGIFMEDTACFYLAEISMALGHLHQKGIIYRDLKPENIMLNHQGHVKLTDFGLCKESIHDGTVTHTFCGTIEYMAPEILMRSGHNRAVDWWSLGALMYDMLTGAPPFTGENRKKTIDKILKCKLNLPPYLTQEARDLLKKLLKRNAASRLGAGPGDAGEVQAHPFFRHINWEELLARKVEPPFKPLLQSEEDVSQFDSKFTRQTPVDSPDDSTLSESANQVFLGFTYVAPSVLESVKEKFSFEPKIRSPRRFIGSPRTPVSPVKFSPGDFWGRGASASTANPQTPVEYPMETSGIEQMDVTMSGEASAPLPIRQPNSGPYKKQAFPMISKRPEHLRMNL

T1 sequence (P31749 whole entry): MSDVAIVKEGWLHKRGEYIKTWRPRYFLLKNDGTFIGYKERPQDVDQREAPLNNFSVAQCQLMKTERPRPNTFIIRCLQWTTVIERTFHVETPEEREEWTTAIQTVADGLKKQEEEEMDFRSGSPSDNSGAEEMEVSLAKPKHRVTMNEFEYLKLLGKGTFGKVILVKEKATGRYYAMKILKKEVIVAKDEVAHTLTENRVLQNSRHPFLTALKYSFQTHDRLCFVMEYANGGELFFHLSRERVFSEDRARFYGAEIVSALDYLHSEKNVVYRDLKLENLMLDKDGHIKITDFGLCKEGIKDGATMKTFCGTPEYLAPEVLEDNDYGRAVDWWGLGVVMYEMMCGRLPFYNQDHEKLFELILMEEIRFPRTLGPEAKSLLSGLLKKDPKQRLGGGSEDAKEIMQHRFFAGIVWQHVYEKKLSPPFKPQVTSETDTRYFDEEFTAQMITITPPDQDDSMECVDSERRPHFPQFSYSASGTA

Structure (SMILES)	IC50 [2] [nM]	IC50 [3] [nM]	IC50 [4] [nM]	also measured
CC(C)NCC(C(=O)N1CCN(c2ncnc3c2C(C)SC3)CC1)c1ccc(Cl)cc1 (stereo unspecified)	–	–	–	Ratio IC50 [1]: 5
C[C@@H]1OCc2ncnc(N3CCN(C(=O)C(Cc4ccc(Cl)c(F)c4)CC(C)(C)N)CC3)c21 (stereo partly specified)	592	91	18	–
C[C@@H]1SCc2ncnc(N3CCN(C(=O)C(Cc4ccc(Cl)cc4)CN4CCCC4)CC3)c21 (stereo partly specified)	178	75	3	–
C[C@@H]1SCc2ncnc(N3CCN(C(=O)[C@H](N)Cc4ccc(Cl)c(F)c4)CC3)c21	176	8	2	–
C[C@@H]1SCc2ncnc(N3CCN(C(=O)[C@H](N)Cc4ccc(Cl)cc4)CC3)c21	184	13	1	–
C[C@@H]1SCc2ncnc(N3CCN(C(=O)[C@H](N)Cc4ccc(F)cc4)CC3)c21	1590	104	11	–
CC(C)NCC(Cc1ccc(Cl)c(F)c1)C(=O)N1CCN(c2ncnc3c2[C@H](C)OC3)CC1 (stereo partly specified)	315	88	6	–
C[C@@H]1OCc2ncnc(N3CCN(C(=O)[C@H](N)Cc4ccc(Cl)cc4)CC3)c21	615	61	7	–
C[C@H]1SCc2ncnc(N3CCN(C(=O)[C@H](N)Cc4ccc(Cl)cc4)CC3)c21	18500	1710	260	–
C[C@@H]1SCc2ncnc(N3CCN(C(=O)C(Cc4ccc(Cl)cc4)C4(N)CC4)CC3)c21 (stereo partly specified)	2470	308	42	–
CCC1SCc2ncnc(N3CCN(C(=O)[C@H](N)Cc4ccc(Cl)cc4)CC3)c21 (stereo partly specified)	1200	52	7	–
C[C@@H]1SCc2ncnc(N3CCN(C(=O)C(Cc4ccc(Cl)c(F)c4)CC4(N)CC4)CC3)c21 (stereo partly specified)	250	30	3	–
C[C@@H]1SCc2ncnc(N3CCN(C(=O)C(Cc4ccc(Cl)cc4)CC(C)(C)N)CC3)c21 (stereo partly specified)	438	73	6	–
CC(C)NCC(Cc1ccc(F)c(F)c1)C(=O)N1CCN(c2ncnc3c2[C@H](C)SC3)CC1 (stereo partly specified)	759	285	10	–
C[C@@H]1SCc2ncnc(N3CCN(C(=O)[C@H](N)Cc4c[nH]c5ccccc45)CC3)c21	3630	–	–	–
CC(C)NC[C@@H](Cc1ccc(Cl)cc1)C(=O)N1CCN(c2ncnc3c2[C@H](C)SC3)CC1	–	5620	127	–
Cc1c[nH]c2ncnc(N3CCN(C(=O)[C@H](N)Cc4ccc(F)cc4)CC3)c12	160	6	–	–
CC(C)NCC(C(=O)N1CCN(c2ncnc3c2C(C)OC3)CC1)c1ccc(Cl)cc1 (stereo unspecified)	–	–	–	Ratio IC50 [5]: 3
C[C@@H]1SCc2ncnc(N3CCN(C(=O)[C@H](N)Cc4ccc(F)c(F)c4)CC3)c21	602	30	4	–
N[C@H](Cc1ccc(Cl)cc1)C(=O)N1CCN(c2ncnc3c2CSC3)CC1	3850	223	22	–
CC(C)NCC(Cc1ccc(Cl)c(F)c1)C(=O)N1CCN(c2ncnc3c2[C@H](C)SC3)CC1 (stereo partly specified)	92	30	2	–
N[C@H](Cc1ccc(Cl)cc1)C(=O)N1CCN(c2ncnc3c2CS(=O)(=O)C3)CC1	21000	1300	52	–
CC(C)NC[C@H](Cc1ccc(Cl)cc1)C(=O)N1CCN(c2ncnc3c2[C@H](C)SC3)CC1	137	35	1	fraction unbound [6]: 0.3; Activity (PC-3 [7]): 84%; inhibition in vivo at 200 mg/kg [8]: 65%; inhibition in vivo at 50 mg/kg [9]: 85%; clearance [10]: 94 mL/min/kg; inhibition in vivo at 50 mg/kg [11]: 60%; inhibition in vivo at 100 mg/kg (PC-3 [12]): 61%; Activity (Plasma [13]): Active; Activity (Plasma [14]): Active; Activity (PC-3 [15]): 15%; Activity (Plasma [16]): Active; Activity (PC-3 [17]): 42%; Activity (Plasma [18]): Active; AUC [19]: 56200 ng·h/mL; inhibition in vivo at 200 mg/kg [20]: 83%; bioavailability [21]: > 100%
Cc1ccc(CC(CNC(C)C)C(=O)N2CCN(c3ncnc4c3[C@H](C)OC4)CC2)cc1 (stereo partly specified)	995	315	16	–
CC(C)NC[C@H](Cc1ccc(Cl)cc1)C(=O)N1CCN(c2ncnc3c2[C@H](C)OC3)CC1	125	52	3	inhibition [22]: > 50%; inhibition [23]: > 50%; inhibition [24]: > 50%
CC1SCc2ncnc(N3CCN(C(=O)[C@H](N)Cc4ccc(Cl)cc4)CC3)c21 (stereo partly specified)	310	31	4	–
CC(C)NCC(Cc1ccc(Cl)cc1)C(=O)N1CCN(c2ncnc3c2[C@H](C)SC3)CC1 (stereo partly specified)	159	80	3	inhibition [22]: > 50%; inhibition [23]: > 50%; inhibition [24]: > 50%
C[C@@H]1SCc2ncnc(N3CCN(C(=O)C(Cc4ccc(Cl)c(F)c4)CC(C)(C)N)CC3)c21 (stereo partly specified)	587	63	7	–
Cc1ccc(CC(CNC(C)C)C(=O)N2CCN(c3ncnc4c3[C@H](C)SC4)CC2)cc1 (stereo partly specified)	216	101	3	–
